# Assay results from PubChem BioAssay AID256 (DTP/NCI, 2004).
# Several values for one entry are separate records, joined by “and”; a condition that tells them apart may be missing. Equal entries are not always repeated. Inconclusive results and toxic doses are left out.
# Tested on: CD2F1 mice, L1210 leukemia ip, survival T/C
# Test: NCI In Vivo Anticancer Drug Screen. Data for tumor model L1210 Leukemia (intraperitoneal) in CD2F1 (CDF1) mice
# Settings: higher = longer survival
# Procedure, shortened: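 Compound-dosed mice with transplantable tumor versus matched vehicle controls; endpoint ratio T/C reported.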
# [1] = endpoint: mean survival time, dose: 12.5 mg/kg/injection, schedule: Q01DX009 (ip), vehicle: saline with Tween-80
# [2] = endpoint: mean survival time, dose: 25.0 mg/kg/injection, schedule: Q01DX009 (ip), vehicle: saline with Tween-80
# [3] = endpoint: mean survival time, dose: 25.0 mg/kg/injection, schedule: Q01DX009 (ip), vehicle: water
# [4] = endpoint: mean survival time, dose: 100.0 mg/kg/injection, schedule: Q04DX003 (ip), vehicle: saline with Tween-80
# [5] = endpoint: mean survival time, dose: 200.0 mg/kg/injection, schedule: Q04DX003 (ip), vehicle: saline with Tween-80
# [6] = endpoint: mean survival time, dose: 400.0 mg/kg/injection, schedule: Q04DX003 (ip), vehicle: saline with Tween-80
# [7] = endpoint: mean survival time, dose: 50.0 mg/kg/injection, schedule: Q01DX009 (ip), vehicle: saline with Tween-80
# [8] = endpoint: mean survival time, dose: 100.0 mg/kg/injection, schedule: Q01DX009 (ip), vehicle: saline with Tween-80
# [9] = endpoint: mean survival time, dose: 200.0 mg/kg/injection, schedule: Q01DX009 (ip), vehicle: saline with Tween-80
smiles,measurement,setting,value
CC1CCC2CC(=O)NC(=O)CC12 (stereo not given),T/C,"endpoint: mean survival time, dose: 6.25 mg/kg/injection, schedule: Q01DX009 (ip), vehicle: saline with Tween-80",98 % of control
same,T/C,"endpoint: mean survival time, dose: 6.25 mg/kg/injection, schedule: Q04DX003 (ip), vehicle: saline with Tween-80",97 % of control
same,T/C,[1],95 % of control
same,T/C,"endpoint: mean survival time, dose: 12.5 mg/kg/injection, schedule: Q04DX003 (ip), vehicle: saline with Tween-80",97 % of control
same,T/C,[2],96 % of control
same,T/C,"endpoint: mean survival time, dose: 25.0 mg/kg/injection, schedule: Q04DX003 (ip), vehicle: saline with Tween-80",92 % of control
COC(=O)C(CS)NC(=O)CCNC(C)=O (stereo not given),T/C,"endpoint: mean survival time, dose: 12.5 mg/kg/injection, schedule: Q01DX009 (ip), vehicle: water",97 % of control
same,T/C,[3],100 % of control
same,T/C,"endpoint: mean survival time, dose: 50.0 mg/kg/injection, schedule: Q01DX009 (ip), vehicle: water",97 % of control
same,T/C,"endpoint: mean survival time, dose: 100.0 mg/kg/injection, schedule: Q01DX009 (ip), vehicle: water",104 % of control
same,T/C,"endpoint: mean survival time, dose: 200.0 mg/kg/injection, schedule: Q01DX009 (ip), vehicle: water",100 % of control
CCC1(CC)NC(=O)N(CCOS(C)(=O)=O)C1=O,T/C,"endpoint: mean survival time, dose: 50.0 mg/kg/injection, schedule: Q01DX001 (ip), vehicle: Klucel (hydroxypropylcellulose) (HPC)",110 % of control
same,T/C,"endpoint: mean survival time, dose: 100.0 mg/kg/injection, schedule: Q01DX001 (ip), vehicle: Klucel (hydroxypropylcellulose) (HPC)",93 % of control
same,T/C,"endpoint: mean survival time, dose: 200.0 mg/kg/injection, schedule: Q01DX001 (ip), vehicle: Klucel (hydroxypropylcellulose) (HPC)",93 % of control
CN(C)C(=S)NNC(=O)c1ccc(Cl)cc1,T/C,"endpoint: mean survival time, dose: 25.0 mg/kg/injection, schedule: Q01DX001 (ip), vehicle: saline with Tween-80",98 % of control
CC(=O)c1cccc(NS(=O)(=O)c2ccc(C)cc2)c1,T/C,[4],97 % of control
same,T/C,[5],99 % of control
same,T/C,[6],99 % of control
CC(=O)CC(C)=O.CC(=O)CC(C)=O.O=N[O-].O=N[O-].[Co],T/C,"endpoint: median survival time, dose: 12.5 mg/kg/injection, schedule: Q01DX009 (ip), vehicle: saline with Tween-80",106 % of control and 108 % of control and 111 % of control
same,T/C,"endpoint: median survival time, dose: 25.0 mg/kg/injection, schedule: Q01DX009 (ip), vehicle: saline with Tween-80",118 % of control and 111 % of control and 112 % of control
same,T/C,"endpoint: median survival time, dose: 50.0 mg/kg/injection, schedule: Q01DX009 (ip), vehicle: saline with Tween-80",116 % of control and 118 % of control
same,T/C,"endpoint: median survival time, dose: 100.0 mg/kg/injection, schedule: Q01DX009 (ip), vehicle: saline with Tween-80",90 % of control
CC(=O)C(C(c1ccccc1)N1CCCc2ccccc21)N1CCOCC1 (stereo not given),T/C,"endpoint: mean survival time, dose: 100.0 mg/kg/injection, schedule: Q04DX003 (ip), vehicle: Klucel (hydroxypropylcellulose) (HPC)",98 % of control
same,T/C,"endpoint: mean survival time, dose: 200.0 mg/kg/injection, schedule: Q04DX003 (ip), vehicle: Klucel (hydroxypropylcellulose) (HPC)",101 % of control
same,T/C,"endpoint: mean survival time, dose: 400.0 mg/kg/injection, schedule: Q04DX003 (ip), vehicle: Klucel (hydroxypropylcellulose) (HPC)",108 % of control
C1CSC(CC2SCCCS2)SC1,T/C,"endpoint: mean survival time, dose: 50.0 mg/kg/injection, schedule: Q01DX001 (ip), vehicle: saline with Tween-80",97 % of control
same,T/C,"endpoint: mean survival time, dose: 100.0 mg/kg/injection, schedule: Q01DX001 (ip), vehicle: saline with Tween-80",94 % of control
same,T/C,"endpoint: mean survival time, dose: 200.0 mg/kg/injection, schedule: Q01DX001 (ip), vehicle: saline with Tween-80",96 % of control
CCCCCCCCC[n+]1ccc(C#N)cc1,T/C,"endpoint: mean survival time, dose: 9.38 mg/kg/injection, schedule: Q01DX001 (ip), vehicle: other",103 % of control
same,T/C,"endpoint: mean survival time, dose: 18.75 mg/kg/injection, schedule: Q01DX001 (ip), vehicle: other",101 % of control
same,T/C,"endpoint: mean survival time, dose: 37.5 mg/kg/injection, schedule: Q01DX001 (ip), vehicle: other",103 % of control
OCC(O)C1OC(SCc2ccccc2)C(O)C(O)C1O (stereo not given),T/C,[4],91 % of control
same,T/C,[5],100 % of control
same,T/C,[6],107 % of control
COc1cc(OC)c(NC(=O)Nc2cccc(C(=O)O)c2)cc1Cl,T/C,[7],88 % of control
same,T/C,[8],88 % of control
same,T/C,[9],92 % of control
O=C(O)C1(C(=O)O)CCC1.[NH2-].[NH2-].[Pt+2],T/C,"endpoint: mean survival time, dose: 3.12 mg/kg/injection, schedule: Q01DX009 (ip), vehicle: dextrose",110 % of control
same,T/C,"endpoint: mean survival time, dose: 6.25 mg/kg/injection, schedule: Q01DX009 (ip), vehicle: dextrose",118 % of control
same,T/C,"endpoint: mean survival time, dose: 6.25 mg/kg/injection, schedule: Q01DX009 (ip), vehicle: other",107 % of control
same,T/C,"endpoint: mean survival time, dose: 12.5 mg/kg/injection, schedule: Q01DX009 (ip), vehicle: dextrose",110 % of control
same,T/C,[1],108 % of control
same,T/C,"endpoint: mean survival time, dose: 12.5 mg/kg/injection, schedule: Q04DX003 (ip), vehicle: water",109 % of control
same,T/C,[2],117 % of control
same,T/C,[3],152 % of control
same,T/C,"endpoint: mean survival time, dose: 25.0 mg/kg/injection, schedule: Q04DX003 (ip), vehicle: water",112 % of control
same,T/C,"endpoint: mean survival time, dose: 50.0 mg/kg/injection, schedule: Q01DX009 (ip), vehicle: dextrose",113 % of control
same,T/C,"endpoint: mean survival time, dose: 100.0 mg/kg/injection, schedule: Q01DX009 (ip), vehicle: other",90 % of control
same,T/C,[8],96 % of control
same,T/C,"endpoint: mean survival time, dose: 100.0 mg/kg/injection, schedule: Q04DX003 (ip), vehicle: water",105 % of control
same,T/C,"endpoint: median survival time, dose: 60.0 mg/kg/injection, schedule: Q01DX009 (ip), vehicle: clinical formulation",109 % of control
same,T/C,"endpoint: median survival time, dose: 90.0 mg/kg/injection, schedule: Q01DX009 (ip), vehicle: dextrose",124 % of control
O=C(O)CC(NC(=O)OCc1ccccc1)C(=O)OCc1ccccc1 (stereo not given),T/C,[8],93 % of control
same,T/C,[4],104 % of control
same,T/C,[9],96 % of control
same,T/C,[5],100 % of control
same,T/C,[6],87 % of control
CN(C)C(=Nc1ccccc1)N(C)N,T/C,"endpoint: mean survival time, dose: 75.0 mg/kg/injection, schedule: Q01DX001 (ip), vehicle: saline",97 % of control
same,T/C,"endpoint: mean survival time, dose: 150.0 mg/kg/injection, schedule: Q01DX001 (ip), vehicle: saline",100 % of control
O=C1CC(=O)N2C=CC=CC2=N1,T/C,"endpoint: mean survival time, dose: 100.0 mg/kg/injection, schedule: Q04DX002 (ip), vehicle: saline",122 % of control
same,T/C,"endpoint: mean survival time, dose: 200.0 mg/kg/injection, schedule: Q04DX002 (ip), vehicle: saline",96 % of control
same,T/C,"endpoint: mean survival time, dose: 400.0 mg/kg/injection, schedule: Q04DX002 (ip), vehicle: saline",92 % of control
CCCCCNc1ncnc2c(C)[nH]nc12,T/C,"endpoint: median survival time, dose: 25.0 mg/kg/injection, schedule: Q01DX009 (ip), vehicle: Klucel (hydroxypropylcellulose) (HPC)",101 % of control
same,T/C,"endpoint: median survival time, dose: 50.0 mg/kg/injection, schedule: Q01DX009 (ip), vehicle: Klucel (hydroxypropylcellulose) (HPC)",108 % of control
same,T/C,"endpoint: median survival time, dose: 100.0 mg/kg/injection, schedule: Q01DX009 (ip), vehicle: Klucel (hydroxypropylcellulose) (HPC)",100 % of control
same,T/C,"endpoint: median survival time, dose: 200.0 mg/kg/injection, schedule: Q01DX009 (ip), vehicle: Klucel (hydroxypropylcellulose) (HPC)",96 % of control
CC(C)S(=O)(=O)/C(Cl)=C(/Cl)C(Cl)=C(Cl)Cl,T/C,[7],106 % of control
O=S(CC(O)c1ccccc1)c1ccccc1 (stereo not given),T/C,[4],93 % of control
same,T/C,[5],102 % of control
O=c1[nH]nc(OCc2ccccc2)c2ncn(Cc3ccccc3)c12,T/C,"endpoint: mean survival time, dose: 12.5 mg/kg/injection, schedule: Q01DX005 (ip), vehicle: other",91 % of control
same,T/C,"endpoint: mean survival time, dose: 100.0 mg/kg/injection, schedule: Q01DX005 (ip), vehicle: other",88 % of control
same,T/C,"endpoint: mean survival time, dose: 200.0 mg/kg/injection, schedule: Q01DX005 (ip), vehicle: other",86 % of control
COC1/C=C/C=C(/C)Cc2cc(O)c(Cl)c(c2)N(C)C(=O)CC(OC(=O)C(C)C)C2(C)OC2C(C)C2CC1(O)NC(=O)O2 (stereo not given),T/C,"endpoint: mean survival time, dose: 0.12 mg/kg/injection, schedule: Q01DX009 (ip), vehicle: saline + alcohol",111 % of control
same,T/C,"endpoint: mean survival time, dose: 0.5 mg/kg/injection, schedule: Q01DX009 (ip), vehicle: saline + alcohol",111 % of control
same,T/C,"endpoint: mean survival time, dose: 1.0 mg/kg/injection, schedule: Q01DX009 (ip), vehicle: saline + alcohol",122 % of control
same,T/C,"endpoint: mean survival time, dose: 2.0 mg/kg/injection, schedule: Q01DX009 (ip), vehicle: saline + alcohol",90 % of control
same,T/C,"endpoint: median survival time, dose: 0.06 mg/kg/injection, schedule: Q01DX009 (ip), vehicle: saline + alcohol",117 % of control
same,T/C,"endpoint: median survival time, dose: 0.12 mg/kg/injection, schedule: Q01DX009 (ip), vehicle: saline + alcohol",117 % of control
same,T/C,"endpoint: median survival time, dose: 0.5 mg/kg/injection, schedule: Q01DX009 (ip), vehicle: saline + alcohol",122 % of control
same,T/C,"endpoint: median survival time, dose: 1.0 mg/kg/injection, schedule: Q01DX009 (ip), vehicle: saline + alcohol",120 % of control
same,T/C,"endpoint: median survival time, dose: 2.0 mg/kg/injection, schedule: Q01DX009 (ip), vehicle: saline + alcohol",123 % of control
Cc1cc([N+](=O)[O-])cc(Br)c1N,T/C,"endpoint: mean survival time, dose: 44.0 mg/kg/injection, schedule: Q04DX003 (ip), vehicle: saline with Tween-80",93 % of control
same,T/C,"endpoint: mean survival time, dose: 66.0 mg/kg/injection, schedule: Q04DX003 (ip), vehicle: saline with Tween-80",95 % of control
same,T/C,[4],93 % of control
same,T/C,"endpoint: mean survival time, dose: 150.0 mg/kg/injection, schedule: Q04DX003 (ip), vehicle: saline with Tween-80",95 % of control
